Data: patent publication US20100249184A1, “INDUCTION AND/OR MAINTENANCE OF TUMOR DORMANCY BY DISRUPTION OF UROKINASE PLASMINOGEN ACTIVATOR RECEPTOR-INTEGRIN INTERACTION” (MOUNT SINAI SCHOOL OF MEDICINE, priority 2007, published 2010)

Legend:
HEK293 cells = assay: Adhesion assay to fibronectin, transfected HEK293 cells; format: cell-based; details: HEK293-uPAR^wt cells; peptide 20 or 200 μM, 15 min
Description: HEK293 cells transiently transfected with pcDNA3.1, or expression constructs for uPAR^wt or uPAR^S245A were detached 40 hrs after transfection and 1.5×10^5 cells were seeded on fibronectin (4 μg/ml in a 48-well plate) for 15 and 30 min at 37° C. Cell adhesion was quantified as described in the Examples. The results shown are mean (SD) of 2 individual experiments, 4 determinations for each cell type. Two additional experiments were performed with similar results. […] The cells were divided into 2 aliquots and one aliquot was incubated for 10 min with anti-uPAR(R^2) antibody (10 μg/ml). Cells (1.2×10^5) were seeded onto wells of a 48-well plate and the adhesion to fibronectin tested as in FIG. 4A. The results are mean (SD) of 6 determinations. […] Cells were seeded onto 96-well plates and adhesion to fibronectin tested as in FIG. 4A. The results are mean (SD) of 3 determinations for each peptide. The experiment was repeated twice.
HEK293 cells were transiently transfected with pcDNA3.1, uPAR^wt, or uPAR^S245A. […] Following 15 and 30 min incubation at 37° C., the cells were washed twice with PBS with CaCl2 and MgCl2, fixed with 1% glutaraldehyde, stained with 1% crystal violet for 10 min, washed, dried, destained with 10% methanol and 5% acetic acid, and the OD of the extracted dye was measured in triplicate using the ELISA microplate-reader ELX800 from Bio-Tek Instruments. […]

T-HEp3 cells = assay: P-ERK/ERK Western blotting after peptide treatment; format: cell-based, human
From the text: FIGS. 6A-E show ERK activation and growth in vivo. In FIG. 6A, HEK293 and D-Hep3 cells transfected with uPAR^wt produces stronger activation of ERK than cells transfected with uPAR^S245A or with vector (top and middle panels); HEK293, and D-HEp3 cells, transiently transfected with pcDNA3.1 vector, or with an expression construct for uPAR^wt or uPAR^S245A lysed 48 hrs later and analyzed by Western blotting for phospho-ERK (FIG. 6A, top panels) and ERK 1/2 (FIG. 6A, middle panels) with specific antibodies. The bands were scanned with NIH Image and plotted. The ratio of phospho-ERK to ERK was calculated and expressed as a fraction of the ratio of pcDNA3.1 transfected cells. In FIG. 6A (bottom panels), uPAR^wt and uPAR^S245A expression was determined by Western blotting. […] D-HEp3 cells transfected with vector, or uPAR^wt or uPAR^S245A were detached with EDTA 36 hrs after transfection and 7×10^5 cells in 30 μl PBS were inoculated onto chorioallantoic membranes (“CAMs”) of 10-day old chick embryos. Each sample was inoculated onto 4 CAMs. The CAMs were excised 4 days later and the number of tumor cells was determined as in the Examples. The bars show mean and standard deviation. Paired t-test vector/uPAR^S245A p=0.76, vector/uPAR^wt p=0.0005, uPAR^S245/uPAR^wt p=0.0002. Inset: uPAR expression detected by Western blot with R2 antibody. In FIG. 6C, peptide 240-248, but not peptide 17-24, down regulates P-ERK level. T-HEp3 cells were serum-starved and treated in serum-free medium with 25 μM of peptides 240-248 and 17-24 for 45 min and 3 hrs. The cells were lysed and the lysates were analyzed for P-ERK (FIG. 6C, upper panel) and total ERK (FIG. 6C, lower panel) by Western blotting. FIG. 6D is a graph showing that S245A mutant peptide has no effect on ERK activation. T-HEp3 cells were treated with 5, 20, and 40 μM peptides 240-248 ([…]), 17-24 (▪), and S245A (▾) for 1 hr. The cells were processed as in FIG. 6C, except that the bands were scanned by NIH Image the P-ERK/ERK ratio was calculated. […] Sub-confluent T-ELK:GFP cells grown in 48-well plate and serum-starved overnight were incubated with the uPAR peptides 240-248 at 5 and 25 μM and with 17-24 peptide at 25 μM for 40 hrs at 37° C. in serum-free medium. The cells were detached and analyzed for GFP in FACS Canto using FACSDiva software. The numbers represent GFP-positive cells as percent of total. The dose-response for peptide 240-248 and highest concentration of peptides 17-24 and S245A were repeated two additional times with similar results.
To test the effect of uPAR/integrin inhibiting peptides on ERK activity, T-HEp3 cells transfected with two plasmids that report through GFP level on the state of ERK activation and designated T-ELK (Aguirre-Ghiso et al., Cancer Res. 63:1684-1695 (2003), which is hereby incorporated by reference in its entirety) were plated in 48-well plates, serum-starved overnight, and treated (in duplicates) with 5 and 25 μM of uPAR-derived synthetic peptides (240-248) or 25 μM (17-24) in DMEM for 42 hrs. Untreated cells served as positive control and cells not expressing GFP as negative control. The cells were detached and analyzed for GFP by FACS analysis using FACS Canto (Becton Dickinson, Calif.) and FACSDiva software. Alternatively, T-HEp3 cells, serum-starved overnight were incubated in serum-free medium with 5, 20, and 40 μM of uPAR-derived synthetic peptide 240-248, 17-24, or S245A for 1 hr or with 25 μM peptide 240-248 and 17-24 for 10 min, 45 min, and 3 hrs at 37° C. The cells were lysed in RIPA buffer and processed as described above. Concentration dependence of P-ERK inhibition was analyzed by scanning P-ERK and ERK bands with NIH-Image and expressing their ratios as % of the ratio in untreated control (T-HEp3) cells.

[1] = 25 μM peptide, 45 and 180 min, serum-starved
[2] = 25 μM peptide, 10 min, serum-starved

For “peptide 17-24: synthetic uPAR-derived peptide, domain I amino acid 17-24: CALGQDLC (SEQ ID NO:5); negative control [reference compound]”, the adhesion to fibronectin (HEK293 cells) was “no effect”, the P-ERK level (T-HEp3 cells; [1]) was “minimal or no effect” and the P-ERK level (T-HEp3 cells; [2]) was “only a minor effect”. The P-ERK level (T-HEp3 cells; 5, 20 and 40 μM peptide, 1 hr) was “minor and inconsistent effects”.

In the case of “peptide 240-248: synthetic uPAR-derived peptide, domain III residues 240-248: GCATASMCQ (SEQ ID NO:9)”, the adhesion to fibronectin (HEK293 cells) is reported as “reduced adhesion to fibronectin”, the P-ERK level (T-HEp3 cells; [1]) is reported as “strong reduction in P-ERK level” and the P-ERK level (T-HEp3 cells; [2]) is reported as “only a minor effect”. The P-ERK level (T-HEp3 cells; 5, 20 and 40 μM peptide, 1 hr) was “reduced P-ERK level in a dose-dependent fashion”.
